From patent US7150974B1, “Parathyroid hormone receptor binding method” (The General Hospital Corporation, priority 1991, dated 2006)

How the values were obtained:
[1] = molecular target: T1, rat bone PTH/PTHrP receptor (Rattus norvegicus, UniProt P25961, E586G); assay: cAMP accumulation, COS cells expressing R15B; assay type: cell-based
T1 construct: expressed in transfected cells; host or cells: COS / COS-7 cells, transient, plasmid R15B (pcDNA I)
T1 sequence (P25961 27-591 E586G): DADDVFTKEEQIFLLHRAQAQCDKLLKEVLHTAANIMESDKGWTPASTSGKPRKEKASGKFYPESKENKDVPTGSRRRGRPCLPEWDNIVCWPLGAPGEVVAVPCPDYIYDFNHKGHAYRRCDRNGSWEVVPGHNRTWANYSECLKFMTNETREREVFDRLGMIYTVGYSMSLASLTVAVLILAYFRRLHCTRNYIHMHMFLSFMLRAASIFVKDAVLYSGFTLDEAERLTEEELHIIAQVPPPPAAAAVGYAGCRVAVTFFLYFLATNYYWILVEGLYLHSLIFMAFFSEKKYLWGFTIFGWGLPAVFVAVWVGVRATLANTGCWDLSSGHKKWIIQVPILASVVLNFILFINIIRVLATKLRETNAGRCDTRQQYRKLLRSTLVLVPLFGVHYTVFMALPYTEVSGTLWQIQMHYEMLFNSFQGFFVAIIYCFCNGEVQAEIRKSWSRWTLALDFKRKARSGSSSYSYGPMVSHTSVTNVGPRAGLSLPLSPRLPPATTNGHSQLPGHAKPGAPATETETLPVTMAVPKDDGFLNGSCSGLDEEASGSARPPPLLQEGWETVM
Protocol: Intracellular cAMP accumulation was measured as described previously (Abou-Samra et al., J. Biol. Chem. 262:1129, 1986). Cells in 24-well plates were rinsed with culture medium containing 0.1% BSA and 2 mM IBMX. […] The supernatant was removed and the cells immediately frozen by placing the whole plate in dry ice powder. Intracellular cAMP was extracted by thawing the cells in 1 ml of 50 mM HCl and analyzed by a specific radioimmunoassay using an anti-cAMP antibody (e.g., Sigma, St. Louis, Mo.). A cAMP analog (2′-O-monosuccinyl-adenosine 3′:5′-cyclic monophosphate tyrosyl methyl ester, obtained from Sigma) which was used a tracer for cAMP was iodinated by the chloramine T method. Free iodine was removed by adsorbing the iodinated cAMP analog onto a C18 Sep-pak cartridge (Waters, Milford, Mass.). After washing with dH2O, the iodinated cAMP analog was eluted from the Sep-pak Cartridge with 40% acetonitrille (ACN) and 0.1% trifluoroacetic acid (TFA). The iodinated cAMP analog was lyophilized, reconstituted in 1 ml 0.1% TFA, and injected into a C18 reverse phase HPLC column (Waters). The column was equilibrated with 10% ACN in 0.1% TFA, and eluted with gradient of 10-30% ACN in 0.1% TFA. This allows separation of the mono-iodinated cAMP analog from the non-iodinated cAMP analog. […] The standard used for the assay, adenosine 3′:5′-cyclic monophosphate, was purchased from Sigma. […]

[2] = molecular target: T2, opossum kidney PTH/PTHrp receptor clone, OK-O (Didelphis virginiana, UniProt P25107, I132F/S86P); assay: Intracellular free calcium, COS cells expressing OK-O; assay type: cell-based; conditions: FIG. 12
T2 construct: expressed in transfected cells; host or cells: COS cells, transient, plasmid OK-O (pcDNA I)
T2 sequence (P25107 27-585 S86P/I132F): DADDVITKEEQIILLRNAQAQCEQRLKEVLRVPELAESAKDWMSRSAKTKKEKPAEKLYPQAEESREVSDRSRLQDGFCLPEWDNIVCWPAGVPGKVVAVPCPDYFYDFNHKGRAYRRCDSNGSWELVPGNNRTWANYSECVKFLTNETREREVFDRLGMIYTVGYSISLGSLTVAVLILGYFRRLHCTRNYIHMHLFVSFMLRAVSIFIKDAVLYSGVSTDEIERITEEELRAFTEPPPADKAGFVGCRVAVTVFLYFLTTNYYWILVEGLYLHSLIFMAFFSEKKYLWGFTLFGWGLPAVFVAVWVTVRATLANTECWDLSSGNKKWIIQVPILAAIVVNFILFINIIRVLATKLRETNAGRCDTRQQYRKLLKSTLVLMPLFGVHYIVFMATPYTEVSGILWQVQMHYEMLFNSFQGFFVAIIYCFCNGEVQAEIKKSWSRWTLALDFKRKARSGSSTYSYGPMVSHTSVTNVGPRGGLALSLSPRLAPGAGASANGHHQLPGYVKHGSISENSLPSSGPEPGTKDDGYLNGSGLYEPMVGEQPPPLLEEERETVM
Protocol: Details of the methodology are:
Coverslips plated with COS cells were incubated in Fura-2 AM loading buffer containing, in mM: HEPES (N-[2-Hydroxyethyl]piperazine-N′-[2-ethanesulfonic acid]), 20; CaCl2, 1; KCl 5; NaCl, 145; MgSO4, 0.5; NaHCO3, 25; K2HPO4, 1.4; glucose, 10; and Fura-2 AM 91-(2-5′-carboxyoxazol-2′-yl)-6-aminobenzofuran-5oxy-(2′-amino-5′-methylphenoxy)ethane-N,N,N′,N′-tetraaecetic acid acetomethoxy ester), 0.5; at 37° C. at pH7.4, aerated with 95% air and 5% CO2 for 45 minutes. Cells loaded with Fura-2 AM were then washed with a modified Krebs-Heinseleit (KH) buffer containing, in mM: HEPES, 20; CaCl2, 1; KCl, 5; NaCl, 145; MgSO4, 0.5; Na2HPO4, 1; glucose, 5; pH7.4. To check that cleavage of the ester occurred, the excitation spectra after different times of Fura-2 AM incubation were measured.
To measure fluorescence of individual cells, the cover slips were placed in a microscope tissue chamber (Biophysica Technologies, Inc., MD). The chamber consisted of a shallow, sloped compartment made of Teflon with a silicone rubber seal. The cover slips served as the bottom of the chamber. A heater/cooler ring was encased in the silicone rubber which sealed the coverslip in place.

Substance: [Nle^8,18, Tyr^34]bPTH(1-34)amide
- cAMP accumulation ([1]; COS cells expressing R15B, FIG. 16): increase cAMP accumulation
- cAMP accumulation, PTH(1-34) compared with PTHrP(1-36) ([1]; COS-7 cells expressing rat receptor): to the same extent
- increase in intracellular free calcium [2]: increase
